Measurements published in publication PMC5314961 (Bioorganic & medicinal chemistry letters, 2017).
“Also recorded” adds a separate entry of the source.

Experiments:
HBV [1] = assay: Anti-HBV activity in HepAD38 cells, HBV DNA replication by real-time PCR; type: cell-based, Hepatitis B virus; conditions: for anti-HBV activity (result in words): HepAD38 system, concentrations up to 10 µM
HBV [2] = conditions: literature report; cited from earlier work

Row | Compound | anti-HBV activity (result in words) (HBV [1]) | inhibitor of HBV replication (reported in the literature) (HBV [2]) | EC50 (HBV [1]; Hepatitis B virus, HePAD38, read-out: Anti-HBV activity, EC50, HepAD38 cells, inhibition of HBV DNA replication by 50%, tested 0.001 to 10 µM, duplicate)
1 | CC1=C(Cl)C(c2ccc(F)cc2Cl)N=C(c2ccccn2)N1 (stereo not drawn) [Compound 26c] | none of them showed activity; also recorded: inactive |  | 
2 | CC1(C)CC(=O)C2=C(C1)NC(c1cccnc1)=NC2c1ccc(F)cc1Cl (stereo not drawn) [Compound 1, reference compound] | did not express any activity | submicromolar inhibitor | 
3 | COC(=O)C1=C(CN=[N+]=[N-])NC(c2ccccn2)=NC1c1ccc(F)cc1Cl (stereo not drawn) [Compound 21d] |  |  | 7.5 µM
4 | CC1=C(C(=O)OCC(F)(F)F)C(c2ccc(F)cc2Cl)N=C(c2ccccn2)N1 (stereo not drawn) [Compound 26e] | none of them showed activity |  | 
5 | CC1=C(C(=O)NS(=O)(=O)N(C)C)C(c2ccc(F)cc2Cl)N=C(c2ccccn2)N1 (stereo not drawn) [Compound 26f] | none of them showed activity |  | 
